Measured values taken from patent US20220347175A1, “PYRIDAZINONE DERIVATIVE” (Sumitomo Dainippon Pharma Co., Ltd., priority 2018, published 2022).

Assays:
human Nav1.1 = target: T1, human Nav1.1 (Homo sapiens, UniProt P35498); assay: Amplification of Nav1.1-derived voltage-dependent sodium current (Nav1.1 current), cell line stably expressing human Nav1.1, automated patch clamp; assay type: cell-based; conditions: 10 μmol/L compound, change of the area under the curve of Nav1.1 current (Test Result 1); for activation at 10 µM: read-out: Nav1.1 current amplification rate (%)
T1 construct: host or cells: HEK293
Summary of the method: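 Amplification rate (%) is 100 × post-compound/pre-compound Nav1.1 peak current or AUC, minus 100. Ramp-evoked sodium currents were recorded by automated patch clamp in a human Nav1.1 HEK293 stable line, restricted to cells exceeding 500 pA, with compounds added in extracellular solution containing 1% DMSO.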

human Nav1.5 = target: T2, human Nav1.5 (Homo sapiens, UniProt Q14524); assay: Amplification of Nav1.5-derived voltage-dependent sodium current (Nav1.5 current), cell line stably expressing human Nav1.5, automated patch clamp; assay type: cell-based; conditions: 10 μmol/L compound, change of the area under the curve of Nav1.5 current (Test Result 1); for activation at 10 µM: read-out: Nav1.5 current amplification rate (%)
T2 construct: expressed in transfected cells; host or cells: CHO-K1 (T-REx System, ThermoFisher Scientific)
T2 sequence (Q14524 1-2015 isoform Q14524-2): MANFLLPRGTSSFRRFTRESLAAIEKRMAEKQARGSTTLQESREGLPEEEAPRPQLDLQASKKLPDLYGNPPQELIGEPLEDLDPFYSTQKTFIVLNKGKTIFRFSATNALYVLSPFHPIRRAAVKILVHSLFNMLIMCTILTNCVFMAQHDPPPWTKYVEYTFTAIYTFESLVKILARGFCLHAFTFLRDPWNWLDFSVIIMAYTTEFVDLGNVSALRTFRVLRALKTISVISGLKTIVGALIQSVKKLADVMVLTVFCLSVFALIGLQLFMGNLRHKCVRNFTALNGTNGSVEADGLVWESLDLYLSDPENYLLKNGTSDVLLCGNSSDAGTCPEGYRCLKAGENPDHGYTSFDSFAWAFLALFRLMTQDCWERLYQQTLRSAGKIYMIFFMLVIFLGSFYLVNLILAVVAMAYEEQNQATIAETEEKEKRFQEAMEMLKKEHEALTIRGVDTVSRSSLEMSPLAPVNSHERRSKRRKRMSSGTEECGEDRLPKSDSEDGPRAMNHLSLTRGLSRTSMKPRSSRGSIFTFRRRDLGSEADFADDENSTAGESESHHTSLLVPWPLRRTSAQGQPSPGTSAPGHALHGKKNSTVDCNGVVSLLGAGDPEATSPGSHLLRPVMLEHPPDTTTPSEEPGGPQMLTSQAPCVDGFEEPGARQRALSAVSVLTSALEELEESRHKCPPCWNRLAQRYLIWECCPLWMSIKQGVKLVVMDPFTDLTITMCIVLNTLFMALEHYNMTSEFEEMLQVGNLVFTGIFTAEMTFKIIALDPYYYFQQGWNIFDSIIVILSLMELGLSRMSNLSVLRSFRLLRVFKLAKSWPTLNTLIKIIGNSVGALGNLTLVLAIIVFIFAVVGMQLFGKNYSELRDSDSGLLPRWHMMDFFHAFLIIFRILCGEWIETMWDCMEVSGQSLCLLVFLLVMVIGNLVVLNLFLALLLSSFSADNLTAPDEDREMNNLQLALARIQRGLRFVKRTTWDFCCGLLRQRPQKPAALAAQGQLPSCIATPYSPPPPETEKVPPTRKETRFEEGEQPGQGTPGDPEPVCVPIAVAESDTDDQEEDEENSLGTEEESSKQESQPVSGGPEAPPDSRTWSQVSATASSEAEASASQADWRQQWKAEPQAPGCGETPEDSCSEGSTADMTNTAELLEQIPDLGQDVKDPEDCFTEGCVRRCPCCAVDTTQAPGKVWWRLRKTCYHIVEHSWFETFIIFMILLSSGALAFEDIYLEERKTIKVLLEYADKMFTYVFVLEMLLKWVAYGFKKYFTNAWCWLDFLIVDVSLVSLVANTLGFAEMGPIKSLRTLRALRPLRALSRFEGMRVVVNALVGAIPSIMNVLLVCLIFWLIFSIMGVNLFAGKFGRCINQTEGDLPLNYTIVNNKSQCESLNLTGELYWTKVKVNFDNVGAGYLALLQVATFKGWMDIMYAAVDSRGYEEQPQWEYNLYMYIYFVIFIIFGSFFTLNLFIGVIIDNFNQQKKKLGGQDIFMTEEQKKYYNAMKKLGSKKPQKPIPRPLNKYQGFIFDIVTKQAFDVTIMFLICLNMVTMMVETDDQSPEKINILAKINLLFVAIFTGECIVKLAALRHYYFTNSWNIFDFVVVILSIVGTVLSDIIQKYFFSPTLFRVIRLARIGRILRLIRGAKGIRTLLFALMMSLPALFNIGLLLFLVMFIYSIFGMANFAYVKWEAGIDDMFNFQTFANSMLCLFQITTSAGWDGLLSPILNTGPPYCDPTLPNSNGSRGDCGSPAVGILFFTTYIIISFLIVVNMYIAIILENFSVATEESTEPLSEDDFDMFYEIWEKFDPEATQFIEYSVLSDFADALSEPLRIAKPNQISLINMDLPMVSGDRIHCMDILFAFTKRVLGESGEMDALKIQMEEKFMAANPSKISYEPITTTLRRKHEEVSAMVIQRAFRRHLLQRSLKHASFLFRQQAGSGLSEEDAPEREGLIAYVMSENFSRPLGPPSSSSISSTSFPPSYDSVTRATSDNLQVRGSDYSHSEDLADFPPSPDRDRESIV

| Structure (SMILES) | Nav1.1 current amplification rate (%) (human Nav1.1) | activation at 10 µM (human Nav1.1) [%] | Nav1.5 current amplification rate (%) (human Nav1.5) | activation at 10 µM (human Nav1.5) [%] |
| --- | --- | --- | --- | --- |
| CC1CCN(c2ccc(=O)n(CC(=O)Nc3cccc(-n4ccnc4)c3)n2)CC1 [Example 67] | 177 | – | 18 | – |
| Cc1nc2cc(NC(=O)Cn3nc(N4CCC(C)CC4)ccc3=O)ccc2o1 [Example 69] | 137 | – | 0 | – |
| Cc1noc2ccc(NC(=O)Cn3nc(N4CCC(C)CC4)ccc3=O)cc12 [Example 70] | 68 | – | 0 | – |
| CC1CCN(c2ccc(=O)n(CC(=O)Nc3ccn4nccc4c3)n2)CC1 [Example 71] | 131 | – | 13 | – |
| CC1CCN(c2ccc(=O)n(CC(=O)Nc3ccn4ccnc4c3)n2)CC1 [Example 72] | 119 | – | 3 | – |
| CC1CCN(c2ccc(=O)n(CC(=O)Nc3ccc4ncoc4c3)n2)CC1 [Example 73] | 92 | – | 1 | – |
| COc1cc(NC(=O)Cn2nc(N3CCC(C)CC3)ccc2=O)ccn1 [Example 74] | 70 | – | −2 | – |
| CC1CCN(c2ccc(=O)n(CC(=O)Nc3cccc(-c4cnco4)c3)n2)CC1 [Example 77] | 93 | – | 28 | – |
| CC1CCN(c2ccc(=O)n(CC(=O)Nc3cccc(-c4ncco4)c3)n2)CC1 [Example 78] | 78 | – | 4 | – |
| CC1CCN(c2ccc(=O)n(CC(=O)Nc3ccc(C(=O)N4CCCC4)cc3)n2)CC1 [Example 79] | 165 | – | 4 | – |
| CC1CCN(c2ccc(=O)n(CC(=O)Nc3cccc(-c4nccs4)c3)n2)CC1 [Example 80] | 131 | – | -3 | – |
| CC1CCN(c2ccc(=O)n(CC(=O)Nc3ccc4oc(=O)n(C)c4c3)n2)CC1 [Example 81] | 69 | – | 21 | – |
| CC1CCN(c2ccc(=O)n(CC(=O)Nc3ccc4oc(=O)[nH]c4c3)n2)CC1 [Example 82] | 121 | – | 5 | – |
| Cc1noc2cc(NC(=O)Cn3nc(N4CCC(C)CC4)ccc3=O)ccc12 [Example 84] | 315 | – | 123 | – |
| CC1CCN(c2ccc(=O)n(CC(=O)Nc3ccc4c(c3)NC(=O)C4)n2)CC1 [Example 86] | 73 | – | 3 | – |
| CC1CCN(c2ccc(=O)n(CC(=O)Nc3ccc4scnc4c3)n2)CC1 [Example 87] | 255 | – | 22 | – |
| Cc1nc2cc(NC(=O)Cn3nc(N4CCC(C)CC4)ccc3=O)ccc2s1 [Example 88] | 183 | – | 31 | – |
| CC1CCN(c2ccc(=O)n(CC(=O)N3CCc4cc(N5CCOCC5)ccc43)n2)CC1 [Example 89] | 187 | – | 34 | – |
| CC1CCN(c2ccc(=O)n(CC(=O)Nc3ccc4oc(N(C)C)nc4c3)n2)CC1 [Example 91] | 93 | – | 9 | – |
| CC1CCN(c2ccc(=O)n(CC(=O)Nc3cc(Cl)c4ocnc4c3)n2)CC1 [Example 94] | 198 | – | 29 | – |
| CC1CCN(c2ccc(=O)n(CC(=O)Nc3ccc4nsnc4c3)n2)CC1 [Example 95] | 221 | – | 18 | – |
| Cc1cc(NC(=O)Cn2nc(N3CCC(C)CC3)ccc2=O)cc2ncoc12 [Example 96] | 105 | – | 7 | – |
| CCc1nc2cc(NC(=O)Cn3nc(N4CCC(C)CC4)ccc3=O)ccc2o1 [Example 97] | 296 | – | 19 | – |
| CC1CCN(c2ccc(=O)n(CC(=O)Nc3ccc4c(c3)ncn4C)n2)CC1 [Example 98] | 15 | – | 4 | – |

The next lines start with results.

| Nav1.1 current amplification rate (%) (human Nav1.1) | activation at 10 µM (human Nav1.1) [%] | Structure (SMILES) | Nav1.5 current amplification rate (%) (human Nav1.5) | activation at 10 µM (human Nav1.5) [%] |
| --- | --- | --- | --- | --- |
| 103 | – | COc1nc2cc(NC(=O)Cn3nc(N4CCC(C)CC4)ccc3=O)ccc2o1 [Example 99] | 4 | – |
| – | 197 | Cc1c(N2CCC(C)CC2)nn(CC(=O)Nc2ccc(C#N)nc2)c(=O)c1C [Example 100] | – | 56 |
| – | 58 | O=C(Cn1nc(C2=CCC(F)(F)CC2)ccc1=O)Nc1ccc(C(F)(F)F)nc1 [Example 103] | – | 13 |
| – | 37 | N#Cc1cncc(NC(=O)Cn2nc(C3=CCC(F)(F)CC3)ccc2=O)c1 [Example 107] | – | 24 |
| – | 57 | N#Cc1ccc(NC(=O)Cn2nc(C3=CCC(F)(F)CC3)ccc2=O)cn1 [Example 109] | – | 23 |
| – | 46 | O=C(Cn1nc(C2=CCC(F)(F)CC2)ccc1=O)Nc1cncc(C(F)(F)F)c1 [Example 112] | – | 9 |
| – | 83 | O=C(Cn1nc(C2=CCC(F)(F)CC2)ccc1=O)Nc1ccnc(C(F)(F)F)c1 [Example 114] | – | 12 |
| – | 56 | N#Cc1cc(NC(=O)Cn2nc(C3=CCC(F)(F)CC3)ccc2=O)ccn1 [Example 115] | – | 12 |
| – | 120 | N#Cc1ccc(NC(=O)Cn2nc(N3CCCCCC3)ccc2=O)cn1 [Example 119] | – | 25 |
| – | 176 | O=C(Cn1nc(N2CCCCCC2)ccc1=O)Nc1ccnc(C(F)(F)F)c1 [Example 120] | – | 5 |
| – | 184 | N#Cc1ccc(NC(=O)Cn2nc(N3CCC4(CCCC4)C3)ccc2=O)cn1 [Example 121] | – | 98 |
| – | 173 | O=C(Cn1nc(N2CCC3(CCCC3)C2)ccc1=O)Nc1ccc2ocnc2c1 [Example 122] | – | 18 |
| – | 246 | O=C(Cn1nc(N2CCC3(CCCC3)C2)ccc1=O)Nc1cccc(-n2ccnc2)c1 [Example 123] | – | 30 |
| – | 205 | N#Cc1ccc(NC(=O)Cn2nc(N3CCC4(CCC4)CC3)ccc2=O)cn1 [Example 124] | – | 70 |
| – | 220 | O=C(Cn1nc(N2CCC3(CCC3)CC2)ccc1=O)Nc1cccc(-n2ccnc2)c1 [Example 125] | – | 34 |
| – | 167 | O=C(Cn1nc(N2CCC3(CCC3)CC2)ccc1=O)Nc1ccc2ocnc2c1 [Example 126] | – | 13 |
| – | 229 | O=C(Cn1nc(N2CCC3(CCC3)CC2)ccc1=O)Nc1ccc2scnc2c1 [Example 127] | – | 58 |
| – | 240 | O=C(Cn1nc(N2CCC3(CCCC3)C2)ccc1=O)Nc1ccc2scnc2c1 [Example 128] | – | 56 |
| – | 314 | CC1(C)CCC=C(c2ccc(=O)n(CC(=O)Nc3ccc4ocnc4c3)n2)C1 [Example 129] | – | 25 |
| – | 181 | O=C(Cn1nc(N2CCCC3(CCC3)C2)ccc1=O)Nc1ccc2ocnc2c1 [Example 130] | – | 3 |
